Experimental data as given in patent US20020055528A1, “Artemisinin analogs having antimalarial, antiproliferative, and antitumor activities and chemoselective methods of making the same” (priority 1999, published 2002).
Where two headings read alike, the source gives them in different places.

Assays:
[1] = tested on: chloroquine-sensitive P. falciparum (NF54); experiment: Antimalarial screening, [3H]hypoxanthine incorporation; format: cell-based, Plasmodium falciparum
Description: Activity was determined by measuring the incorporation of [^3H]hypoxanthine, by the methods of Desjardins and Milhouse, with the following modifications, see […].; Haynes, […]. Antimicrob. Agents Chemother., 16: 710 (1979); Milhous, W. K.; Weatherly, […].; Antimicrob. Agents Chemother., 27: 525 (1985). […] Calbiochem #391338), 27 mM NaHCO3 (Gibco BRL # 11810-025), and 10% heat-inactivated human type O+serum (Interstate Blood Bank, Inc.), under 3% O2, 4% CO2, and 93% N2-Parasitemia was maintained at 0.05-3% and doubling time at approximately 15 hours by twice weekly change of medium and replenishment with fresh erythrocytes. […] Sigma-Aldrich #27,043-1). DMSO solutions were diluted 500-fold in medium, serially diluted in 0.2% DMSO in medium (to maintain constant solvent concentration), then 100 μL aliquots were pipetted into microtiter plate wells (Costar3595). […] Cells were harvested (Brandel MB-48R) onto GF-C glass filters (Brandel). The filters were washed five times with 3 mL water per sample spot, dried under a heat lamp, and counted (Beckman Model LS-6500) in scintillation cocktail (ICN Cytoscint). Decays per minute (dpm) values were downloaded and analyzed (Power Macintosh 7200/90; Microsoft Excel 5.0), to yield the mean and standard deviation at each drug concentration.

[2] = tested on: murine keratinocyte cell line PE; experiment: Growth inhibition of PE cells, MTT assay; format: cell-based; settings: 96 hours
Description: To determine the inhibitory effect of the compositions of the present invention on cell proliferation, screening assays were performed on a murine keratinocyte cell line PE. Cell line PE was chosen for its particular sensitivity to the induction of omithine decarboxylase (ODC) activity by the extensively characterized tumor promoter TPA. Cell line PE was derived from a papilloma-induced in female SENCAR mice by a standard skin initiation/promotion protocol, see Yuspa, S. H., et al., Carcinogenesis, 7:949-958 (1986). PE cell culture medium consisted of Eagle's minimal essential medium without calcium chloride (Whittaker Bioproducts, Walkersville, Mass.) supplemented with 8% chelexed fetal calf serum and 1% antibiotic-antimycotic (Gibco BRL) and the addition of CaCI2 to 0.05 mM Ca^++
MTT [3-(4,5-dimethylthiazol-2-yl)-2,5-diphenyltetraxolium bromide] was purchased from Sigma Chemical Co. (St. Louis, Mo.), and TPA was supplied by L.C. Services (Woburn, Mass.). L-[^14C]omithine ([…]) was from Amersham/Searle Corp. (Arlington Heights, Ill.). Chemical solvents used in all assays of biological activity were of the highest grade commercially available.
Growth curves, shown in FIG. 5, for PE cells treated with calcitriol and the C-10 carbon-substituted dimers VII-f, VII-g and VII-h generated by assay for the reduction of the tetrazolium-based compound MTT, see Charmichael, et al., Cancer Res., 47:936-942 (1987). A mitochondrial dehydrogenase reduces MTT to a blue formazan product with an absorbance maximum of 505 nm in DMSO; the number of viable cells can thus be determined spectrophotometrically. PE cells were seeded at a density of 5,000 cells/well in 50 IL of medium into 96-well microtiter plates. Twelve hours later, the medium was removed, and cells were treated with 100 μL of fresh medium into which the appropriate amount of calcitriol or analog dissolved in dimethyl sulfoxide (DMSO) had been added, with the concentration of DMSO held constant at 0.1 %. […] At 24-hour intervals following the initial treatment of the cells with compounds, 0.1 mg (50 μL of a 2 mg/mL solution) of MTT was added to each well. After 4 hours, the MTT was removed and DMSO added to dissolve the blue formazan dye. Using a microtiter plate reader, the A505 was then determined and cell number calculated from blank-subtracted absorbance values.

[3] = in vivo; cited from earlier work
[4] = tested on: P. berghei; settings: P. berghei-infected mice; cited from earlier work
[5] = rat liver microsomes; cited from earlier work
[6] = chloroquine-sensitive P. falciparum (NF54), read-out: IC50
[7] = Plasmodium falciparum, NF54, chloroquine-sensitive P. falciparum (NF54), read-out: IC50

Question: With CC1=C(C=Cc2ccccc2)OC2OC3(C)CCC4C(C)CCC1C24OO3 (stereo not drawn) [E-VII-c, 10-(Styryl)anhydroartemisinin] as the compound, how does the IC50 [1, 6] read?
Answer: 16 nM

Question: With CC1=C(c2nc3ccccc3s2)OC2OC3(C)CCC4C(C)CCC1C24OO3 (stereo not drawn) [Benzo-4, 10-(2′-Benzothiazolyl)anhydroartemisinin] as the compound, how does the IC50 [1, 6] read?
Answer: 7.8 nM

Question: Which results are given for CC1=C(C=O)O[C@@H]2O[C@@]3(C)CC[C@H]4[C@H](C)CC[C@@H]1[C@@]24OO3 [Ie, 10-Formylanhydroartemisinin]?
Answer: melting point: 115 to 117 °C; IC50 [1, 7]: 37 nM

Question: Which IC50 [1, 6] does the source give for 10-(Benzhydryl)anhydroartemisinin [I-5] here?
Answer: 4.5 nM

Question: With C=C1/C(=C\C=C2/CCC[C@]3(C)[C@@H]([C@H](C)CCCC(C)(C)O)CC[C@@H]23)C[C@@H](O)C[C@@H]1O [calcitriol, 1α, 25-dihydroxyvitamin D3, reference compound] as the compound, how does the “viability of treated cells by trypan blue exclusion” value [2] read?
Answer: identical to control cells

Question: With CC1=C(C=Cc2ccc([N+](=O)[O-])cc2)OC2OC3(C)CCC4C(C)CCC1C24OO3 (stereo not drawn) [E-VII-d, 10-(p-Nitrostyryl)anhydroartemisinin] as the compound, how does the IC50 [1, 6] read?
Answer: 11 nM

Question: Which IC50 [1, 6] does the source give for C=CC1=C(C)C2CCC(C)C3CCC4(C)OOC23C(O1)O4 (stereo not drawn) [VII-a, 10-Vinylanhydroartemisinin] here?
Answer: 28 nM

Question: For CC1=C(C=Cc2ccc([N+](=O)[O-])cc2)OC2OC3(C)CCC4C(C)CCC1C24OO3 (stereo not drawn) [Z-VII-d, 10-(p-Nitrostyryl)anhydroartemisinin], which IC50 [1, 6] is on record?
Answer: 10 nM

Question: For CC1=C(C(=O)c2ccccc2)O[C@@H]2O[C@@]3(C)CC[C@H]4[C@H](C)CC[C@@H]1[C@@]24OO3 [I-4, 10-Benzoylanhydroartemisinin], which IC50 [1, 7] is on record?
Answer: 4.6 nM

Question: Which half-life in plasma [3] does the source give for C[C@H]1[C@@H](O)O[C@@H]2O[C@@]3(C)CC[C@H]4[C@H](C)CC[C@@H]1[C@@]24OO3 [II-1, dihydroartemisinin] here?
Answer: less than two hours

Question: Which IC50 ([1]; Plasmodium falciparum, NF54) does the source give for CC1=C(c2nccs2)O[C@@H]2O[C@@]3(C)CC[C@H]4[C@H](C)CC[C@@H]1[C@@]24OO3 [Ib, 10-(2′-Thiazolyl)anhydroartemisinin] here?
Answer: 14 nM

Question: For CC1=CO[C@@H]2O[C@]3(C)CC[C@H]4[C@H](C)CC[C@@H]1[C@@]24OO3 [III], which activity in words [4] is on record?
Answer: inactive

Question: Which “conversion into dihydroartemisinin (II-1)” value [5] does the source give for CCO[C@H]1O[C@@H]2O[C@@]3(C)CC[C@H]4[C@H](C)CC[C@@H]([C@H]1C)[C@@]24OO3 [arteether] here?
Answer: rapidly converted

Question: With CC1=C(C=Cc2ccccc2)OC2OC3(C)CCC4C(C)CCC1C24OO3 (stereo not drawn) [Z-VII-C, 10-(Styryl)anhydroartemisinin] as the compound, how does the IC50 [1, 6] read?
Answer: 8.1 nM
